Data: PMC8315004, “Discovery of Small-Molecule Inhibitors of SARS-CoV-2 Proteins Using a Computational and Experimental Pipeline” (Frontiers in Molecular Biosciences, 2021)
Structures can show the parent of a compound that is named as a salt.

Molecular target: SARS-CoV-2 M^pro (Severe acute respiratory syndrome coronavirus 2, UniProt P0DTD1)
Experiment: biochemical
Set-up: inhibition: dose or concentration left out as unconfirmed
Conditions: for inhibition / Normalized Percent FRET inhibition: initial screen, Table S4; for inhibition / inhibition at 100 µM: read-out: Normalized Percent FRET inhibition; for Normalized Percent FRET inhibition: 100 μM of drug

CC1(C)CCC(CN2CCN(c3ccc(C(=O)NS(=O)(=O)c4ccc(NCC5CCOCC5)c([N+](=O)[O-])c4)c(Oc4cnc5[nH]ccc5c4)c3)CC2)=C(c2ccc(Cl)cc2)C1 [ABT199]
inhibition: 6.27%

C[C@H]1O[C@H](O[C@H]2[C@H](O)[C@@H](O)[C@@H](O[C@H]3[C@H](O)[C@@H](O)C(O)O[C@@H]3CO)O[C@@H]2CO)[C@H](O)[C@@H](O)[C@@H]1N[C@H]1C=C(CO)[C@@H](O)[C@H](O)[C@H]1O (some centres unmarked) [Acarbose]
inhibition: -3.44%

C[C@H]1CN(C[C@H](Cc2ccccc2)C(=O)NCC(=O)O)CC[C@@]1(C)c1cccc(O)c1 [Alvimopan]
inhibition: -3.26%

C[C@@H](O[C@H]1OCCN(Cc2n[nH]c(=O)[nH]2)[C@H]1c1ccc(F)cc1)c1cc(C(F)(F)F)cc(C(F)(F)F)c1 [Aprepitant]
inhibition: 3.37%

CC1CNc2c(cccc2S(=O)(=O)N[C@@H](CCCNC(=N)N)C(=O)N2CC[C@@H](C)C[C@@H]2C(=O)O)C1 (some centres unmarked) [Argatroban]
inhibition: 13.5%

COC(=O)N[C@H](C(=O)N[C@@H](Cc1ccccc1)[C@@H](O)CN(Cc1ccc(-c2ccccn2)cc1)NC(=O)[C@@H](NC(=O)OC)C(C)(C)C)C(C)(C)C [Atazanavir]
inhibition: -1.97%

CC1=C(C(=O)OC(C)C)C(c2cccc([N+](=O)[O-])c2)C(C(=O)OC2CN(C(c3ccccc3)c3ccccc3)C2)=C(N)N1 (centres unmarked) [Azelnidipine]
inhibition: 8.17%

CCOc1nc2cccc(C(=O)OCc3oc(=O)oc3C)c2n1Cc1ccc(-c2ccccc2-c2noc(=O)[nH]2)cc1 [Azilsartan Medoxomil]
inhibition: -1.99%

CC1(C)S[C@@H]2[C@H](NC(=O)[C@H](NC(=O)N3CCNC3=O)c3ccccc3)C(=O)N2[C@H]1C(=O)O [Azlocillin sodium]
inhibition: -0.915%

NS(=O)(=O)c1cc2c(cc1C(F)(F)F)NC(Cc1ccccc1)NS2(=O)=O (centres unmarked) [Bendroflumethiazide]
inhibition: 11.6%

COc1cc(N2CCC(N3CCN(C)CC3)CC2)ccc1Nc1ncc(Cl)c(Nc2ccccc2P(C)(C)=O)n1 [Brigatinib]
inhibition: 5.97%

COc1cc2nccc(Oc3ccc(NC(=O)C4(C(=O)Nc5ccc(F)cc5)CC4)cc3)c2cc1OC [Cabozantinib Malate]
inhibition: 0.386%

Nc1nc(=O)c2c([nH]1)NC[C@H](CNc1ccc(C(=O)N[C@@H](CCC(=O)[O-])C(=O)[O-])cc1)N2C=O.[Ca+2] [Calcium Levofolinate]
Normalized Percent FRET inhibition: 13%

CN1c2c(nc(N)[nH]c2=O)NCC1CNc1ccc(C(=O)N[C@@H](CCC(=O)O)C(=O)O)cc1 (some centres unmarked) [Calcium N5-methyltetrahydrofolate]
inhibition at 100 µM: 3.74%

CCOc1nc2cccc(C(=O)O)c2n1Cc1ccc(-c2ccccc2-c2nnn[nH]2)cc1 [Candesartan]
effect in the FRET-based activity assay (in words): no effect

CO/N=C(\C(=O)N[C@@H]1C(=O)N2C(C(=O)O)=C(CSc3nnnn3C)CS[C@H]12)c1csc(N)n1.CO/N=C(\C(=O)N[C@@H]1C(=O)N2C(C(=O)O)=C(CSc3nnnn3C)CS[C@H]12)c1csc(N)n1.Cl [Cefmenoxime hydrochloride]
Normalized Percent FRET inhibition: -1.304%

CCN1CCN(C(=O)N[C@@H](C(=O)N[C@@H]2C(=O)N3C(C(=O)O)=C(CSc4nnnn4C)CS[C@H]23)c2ccc(O)cc2)C(=O)C1=O [Cefoperazone sodium]
Normalized Percent FRET inhibition (100 µM): 14.81%

CCN1CCN(C(=O)N[C@@H](C(=O)N[C@@H]2C(=O)N3C(C(=O)O)=C(CSc4nnnn4C)CS[C@H]23)c2ccc(O)cc2)C(=O)C1=O [Cefoperazone]
Normalized Percent FRET inhibition (100 µM): -0.3067%

CO[C@@]1(NC(=O)C2SC(=C(C(N)=O)C(=O)O)S2)C(=O)N2C(C(=O)O)=C(CSc3nnnn3C)CS[C@@H]21 (some centres unmarked) [Cefotetan]
inhibition: 2.14%

Cc1cc(O)c(C(=O)N[C@@H](C(=O)N[C@@H]2C(=O)N3C(C(=O)O)=C(CSc4nnnn4C)CS[C@H]23)c2ccc(O)cc2)cn1 [Cefpiramide acid]
Normalized Percent FRET inhibition: 7.373%

CC(C)C(=O)OCC(=O)[C@@]12O[C@H](C3CCCCC3)O[C@@H]1C[C@H]1[C@@H]3CCC4=CC(=O)C=C[C@]4(C)[C@H]3[C@@H](O)C[C@@]12C [Ciclesonide]
inhibition: -0.393%

CC(C)CN(C[C@@H](O)[C@H](Cc1ccccc1)NC(=O)O[C@H]1CO[C@H]2OCC[C@H]21)S(=O)(=O)c1ccc(N)cc1.CCO [Darunavir Ethanolate]
Normalized Percent FRET inhibition: -1.838%

C[C@H]1O[C@@H](O[C@H]2[C@@H](O)C[C@H](O[C@H]3[C@@H](O)C[C@H](O[C@H]4CC[C@@]5(C)[C@H](CC[C@@H]6[C@@H]5CC[C@]5(C)[C@@H](C7=CC(=O)OC7)CC[C@]65O)C4)O[C@@H]3C)O[C@@H]2C)C[C@H](O)[C@@H]1O [Digitoxin]
inhibition: 0.197%

COc1ccc(-c2cc(=O)c3c(O)cc(O[C@@H]4O[C@H](CO[C@@H]5O[C@@H](C)[C@H](O)[C@@H](O)[C@H]5O)[C@@H](O)[C@H](O)[C@H]4O)cc3o2)cc1O [Diosmin]
inhibition: -0.378%

COc1cc2nc(N3CCN(C(=O)C4COc5ccccc5O4)CC3)nc(N)c2cc1OC (centres unmarked) [Doxazosin mesylate]
inhibition: 0.919%

C[C@]12C=CC(=O)N[C@@H]1CC[C@@H]1[C@@H]2CC[C@]2(C)[C@@H](C(=O)Nc3cc(C(F)(F)F)ccc3C(F)(F)F)CC[C@@H]12 [Dutasteride]
inhibition: -2.38%

CC1=C(C(=O)OCCN(Cc2ccccc2)c2ccccc2)C(c2cccc([N+](=O)[O-])c2)C(P2(=O)OCC(C)(C)CO2)=C(C)N1 (centres unmarked) [Efonidipine]
inhibition: -1.16%

CC1=NN(c2ccc(C)c(C)c2)C(=O)/C1=N\Nc1cccc(-c2cccc(C(=O)O)c2)c1O [Eltrombopag Olamine]
inhibition: 23.7%

CC1(C)[C@@H](O)CC[C@]2(C)[C@H]3C(=O)C=C4[C@@H]5C[C@@](C)(C(=O)O)CC[C@]5(C)CC[C@@]4(C)[C@]3(C)CC[C@@H]12 [Enoxolone]
inhibition: 4.01%

C#C[C@]1(O)CC[C@H]2[C@@H]3CCc4cc(O)ccc4[C@H]3CC[C@@]21C [Ethynyl estradiol]
inhibition: -3.17%

Cc1cc(C#N)cc(C)c1Oc1nc(Nc2ccc(C#N)cc2)nc(N)c1Br [Etravirine]
inhibition: -0.895%

O=C1[C@H](CC[C@H](O)c2ccc(F)cc2)[C@@H](c2ccc(O)cc2)N1c1ccc(F)cc1 [Ezetimibe]
inhibition: -1.34%

CC1(C)O[C@@H]2C[C@H]3[C@@H]4C[C@H](F)C5=CC(=O)C=C[C@]5(C)[C@@]4(F)[C@@H](O)C[C@]3(C)[C@]2(C(=O)CO)O1 [Fluocinolone acetonide]
inhibition: 0.0249%

CCC(=O)O[C@@H](O[P@](=O)(CCCCc1ccccc1)CC(=O)N1C[C@H](C2CCCCC2)C[C@H]1C(=O)[O-])C(C)C.[Na+] [Fosinopril sodium]
Normalized Percent FRET inhibition: 3.315%

CC(C)=CCC[C@](C)(O[C@@H]1O[C@H](CO)[C@@H](O)[C@H](O)[C@H]1O)[C@H]1CC[C@]2(C)[C@@H]1[C@H](O)C[C@@H]1[C@@]3(C)CC[C@H](O)C(C)(C)[C@@H]3[C@@H](O[C@@H]3O[C@H](CO)[C@@H](O)[C@H](O)[C@H]3O)C[C@]12C [Ginsenoside Rg1]
inhibition: 4.19%

OCCOCCN1CCN(C(c2ccccc2)c2ccc(Cl)cc2)CC1 (centres unmarked) [Hydroxyzine Pamoate]
inhibition: 12.9%

C=CC(=O)N1CCC[C@@H](n2nc(-c3ccc(Oc4ccccc4)cc3)c3c(N)ncnc32)C1 [Ibrutinib]
inhibition: -1.91%

CCc1c2c(nc3ccc(OC(=O)N4CCC(N5CCCCC5)CC4)cc13)-c1cc3c(c(=O)n1C2)COC(=O)[C@]3(O)CC.Cl.O.O.O [Irinotecan hydrochloride trihydrate]
Normalized Percent FRET inhibition: -2.22%

C[C@@H](c1nc(-c2ccc(C#N)cc2)cs1)[C@](O)(Cn1cncn1)c1cc(F)ccc1F [Isavuconazole]
inhibition: -0.886%

CS(=O)(=O)CCNCc1ccc(-c2ccc3ncnc(Nc4ccc(OCc5cccc(F)c5)c(Cl)c4)c3c2)o1 [Lapatinib Ditosylate]
inhibition: -1.57%

CC#CCn1c(N2CCC[C@@H](N)C2)nc2c1c(=O)n(Cc1nc(C)c3ccccc3n1)c(=O)n2C [Linagliptin]
inhibition: 8.28%

COc1ccc(CN2CCN(C(c3ccc(F)cc3)c3ccc(F)cc3)CC2)c(OC)c1OC.Cl.Cl [Lomerizine hydrochloride]
Normalized Percent FRET inhibition: -0.2765%

Cc1cccc(C)c1OCC(=O)N[C@@H](Cc1ccccc1)[C@@H](O)C[C@H](Cc1ccccc1)NC(=O)[C@H](C(C)C)N1CCCNC1=O [Lopinavir]
inhibition: 18.2%

OC[C@H]1O[C@H](O[C@H]2[C@H](O)[C@@H](O)[C@@H](O[C@H]3[C@H](O)[C@@H](O)[C@@H](O[C@H]4[C@H](O)[C@@H](O)C(O)O[C@@H]4CO)O[C@@H]3CO)O[C@@H]2CO)[C@H](O)[C@@H](O)[C@@H]1O (some centres unmarked) [MALTOTETRAOSE]
Normalized Percent FRET inhibition: -0.9055%

C#C[C@]1(O)CC[C@H]2[C@@H]3CCc4cc(OC)ccc4[C@H]3CC[C@@]21C [Mestranol]
inhibition: -1.1%

CN(c1nccc(=O)[nH]1)C1CCN(c2nc3ccccc3n2Cc2ccc(F)cc2)CC1 [Mizolastine]
inhibition: -0.317%

Cc1c(O)cccc1C(=O)N[C@@H](CSc1ccccc1)[C@H](O)CN1C[C@H]2CCCC[C@H]2C[C@H]1C(=O)NC(C)(C)C [Nelfinavir Mesylate]
inhibition: 30.8%

CO[C@@H]1[C@@H](OC(N)=O)[C@@H](O)[C@H](Oc2ccc3c(O)c(NC(=O)c4ccc(O)c(CC=C(C)C)c4)c(=O)oc3c2C)OC1(C)C [Novobiocin Sodium]
inhibition: -0.228%

CCCc1nc(C(C)(C)O)c(C(=O)OCc2oc(=O)oc2C)n1Cc1ccc(-c2ccccc2-c2nnn[nH]2)cc1 [Olmesartan Medoxomil]
inhibition: 2.83%

C=CC(=O)Nc1cccc(Oc2nc(Nc3ccc(N4CCN(C)CC4)cc3)nc3ccsc23)c1 [Olmutinib]
inhibition: -0.795%

C[C@@H]1O[C@@H](O[C@H]2C[C@@H](O)[C@]3(CO)[C@H]4[C@H](O)C[C@]5(C)[C@@H](C6=CC(=O)OC6)CC[C@]5(O)[C@@H]4CC[C@]3(O)C2)[C@H](O)[C@H](O)[C@H]1O [Ouabain octahydrate]
inhibition: -0.948%

CC(=O)O[C@H]1C[C@@H]2CC[C@@H]3[C@H](CC[C@@]4(C)[C@H]3C[C@H]([N+]3(C)CCCCC3)[C@@H]4OC(C)=O)[C@@]2(C)C[C@@H]1[N+]1(C)CCCCC1 [Pancuronium bromide]
inhibition at 100 µM: 10%

Cc1cnc(C(=O)N[C@H]2CCCCC/C=C\[C@@H]3C[C@@]3(C(=O)NS(=O)(=O)C3CC3)NC(=O)[C@@H]3C[C@@H](Oc4nc5ccccc5c5ccccc45)CN3C2=O)cn1 [Paritaprevir]
inhibition: 0.758%
